Assays:
[1] = test system: neutrophils, lymphocytes and eosinophils; assay: Neutrophil, lymphocyte and eosinophil ratio after Tamoxifen and PLAG in mice; assay type: in vivo; conditions: Tam 100 mg/kg + PLAG 5 mg/kg, after 15 hours
Protocol: 100 mg/kg of anticancer agent Tamoxifen (Tam) is used to induce reduction of neutrophils, followed by treated with 5 mg/kg of PLAG and the ratios of neutrophil (NEU), lymphocyte (LYM), and eosinophil (EOS) are measured after 15 hours as in the previous experiment.

C3 = C3 in culture supernatant of HepG2 cells by ELISA; assay type: cell-based, human; conditions: HepG2, PLAG 1 to 100 μg/ml, IL-4 and TNF-α, 18 hr
Protocol: (§1) The incubated HepG2 cell lines are treated with PLAG (1˜100 μg/ml), followed by IL-4 and TNF-α, reacted for 1 hour, incubated for 18 hours at 37° C. and the supernatant isolated. Quantitation of the amount of C3 in the cellular culture medium (supernatant) from HepG2 cells is performed by ELISA using a commercially available monoclonal antibody (mAb, R&D Systems) and the manufacture's protocol; the results are presented in FIG. 3. C3 is expressed spontaneously under in vitro culture condition using 10% FCS added to HepG2 cells incubated for 12 hr. The cells are treated with different doses of PLAG from 1 to 100 μg/ml (Panel A, Panel B) or 10 and 100 μg/ml of S6I (Panel C), reacted with IL-4 and TNF-α for 1 hr and then incubated for 18 hr at 37° C. Cellular viability is confirmed using the WST-1 assay (Panel A).

p38 MAPK = p38 MAPK phosphorylation, western blot in IgE-antigen stimulated RBL-2H3 cells; assay type: cell-based; conditions: PLAG pre-incubated RBL-2H3 cells, IgE-antigen complex stimulation
Protocol: Dephosphorylation of p38 MAPK and ERK1/2 in PLAG-treated RBL-2H3 cells is determined by western blot analysis using anti-phospho-p38 and anti-phospho-ERK1/2 respectively. To activate the p38 and ERK1/2 in RBL-2H3 cells, the cells are sensitized with 50 ng/mL of anti-DNP-IgE overnight. After washing with PBS three times, 20 ng/ml of DNP-HSA is added. Each cell lysate for western blot is prepared in the PLAG-treated RBL-2H3 cells in a dose-dependent manner and incubated for the same time (15 min). β-actin is used as internal controls. ERK1/2 and p38 phosphorylation start immediately after IgE-antigen complex stimulation and remain sufficiently activated for 5 min.

HepG2 cells = assay: WST-1 cell viability assay in HepG2 cells; assay type: cell-based; conditions: HepG2, PLAG 1 to 100 μg/ml
Protocol: as §1

Structure (SMILES): CCCCC/C=C\C/C=C\CCCCCCCC(=O)OC(COC(C)=O)COC(=O)CCCCCCCCCCCCCCC (racemic) [PLAG, 1-palmitoyl-2-linoleoyl-3-acetylglycerol]
- Eosinophil Ratio [1]: 15.1 ± 0.3%
- Lymphocyte ratio [1]: 45.7 ± 4.1%
- Neutrophil Ratio [1]: 35.2 ± 2.4%
- expression of C3 in supernatant (ELISA) (C3): decreased dose-dependently
- p38 phosphorylation (p38 MAPK): down-regulated
- cellular viability (WST-1) (HepG2 cells): does not affect the cellular propagation and death
